Data taken from patent publication US20240424111A1, “Degrader Compounds and Uses Thereof” (CALICO LIFE SCIENCES LLC, priority 2021, published 2024).

Legend:
PTPN2 [1] = target: T1, PTPN2 (Mus musculus, UniProt Q06180); assay: HiBiT PTPN2 degradation in B16F10.4 cells, 24 hours; assay type: cell-based
T1 construct: HiBiT; host or cells: B16F10.4
T1 sequence (Q06180 1-406): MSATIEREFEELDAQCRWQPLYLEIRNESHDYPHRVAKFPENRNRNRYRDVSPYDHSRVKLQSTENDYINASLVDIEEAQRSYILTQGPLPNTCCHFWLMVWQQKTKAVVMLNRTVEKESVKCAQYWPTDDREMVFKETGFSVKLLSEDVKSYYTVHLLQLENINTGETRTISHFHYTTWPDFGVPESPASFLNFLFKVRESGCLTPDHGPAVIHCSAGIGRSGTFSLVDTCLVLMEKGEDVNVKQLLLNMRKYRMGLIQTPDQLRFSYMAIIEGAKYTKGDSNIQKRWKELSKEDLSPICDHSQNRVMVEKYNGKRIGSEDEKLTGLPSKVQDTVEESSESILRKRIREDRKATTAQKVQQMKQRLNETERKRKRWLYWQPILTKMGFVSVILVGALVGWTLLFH
Description: (§1) PTPN2 degradation was determined based on quantification of luminescent signal using Nano-Glo® HiBiT Lytic Assay kit. Test compounds were added to the 384-well plate from a top concentration of 10 μM with 11 points, half log titration in duplicates. 293T. 109 cells were added into 384-well plates at a cell density of 5000 cells per well. The plates were kept at 37° C. with 5% CO2 for 24 hours. The cells treated in the absence of the test compound were the negative control and the cells without Nano-Glo® HiBiT Lytic reagent were the positive control. After 24-hour incubation, Nano-Glo® HiBiT Lytic Assay reagents were added to the cells. Luminescence was acquired on EnVision™ Multilabel Reader (PerkinElmer, Santa Clara, CA, USA).

PTPN2 [2] = target: T2, PTPN2 (Homo sapiens, UniProt P17706); assay: HiBiT PTPN2 degradation in 293T.109 (HiBiT-PTPN2) cells, 24 hours; assay type: cell-based; conditions: 293T.109 cells
T2 construct: expressed in transfected cells; host or cells: 293T.109 (HiBiT-PTPN2), derived from 293T WT (ATCC)
T2 sequence (P17706 1-415): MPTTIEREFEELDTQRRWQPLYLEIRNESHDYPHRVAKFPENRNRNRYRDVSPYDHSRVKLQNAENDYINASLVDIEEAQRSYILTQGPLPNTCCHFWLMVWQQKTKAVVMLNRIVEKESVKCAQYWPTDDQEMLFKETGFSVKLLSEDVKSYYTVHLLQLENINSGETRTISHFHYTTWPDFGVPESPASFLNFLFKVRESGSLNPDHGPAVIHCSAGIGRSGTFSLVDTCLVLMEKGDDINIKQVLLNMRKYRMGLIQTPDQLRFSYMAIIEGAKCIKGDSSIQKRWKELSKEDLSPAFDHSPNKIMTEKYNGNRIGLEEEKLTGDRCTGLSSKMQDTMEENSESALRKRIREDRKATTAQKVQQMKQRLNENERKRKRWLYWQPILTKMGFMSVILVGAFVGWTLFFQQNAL
Description: Dulbecco's modified Eagle medium (DMEM) without phenol red and fetal bovine serum (FBS) were purchased from Gibco (Grand Island, NY, USA). Nano-Glo® HiBiT Lytic Assay System was purchased from Promega (Medison, WI, USA). 293T. 109 (HiBiT-PTPN2) cell line was generated by ectopically expressing PTPN2 with N-terminal HiBiT fusion tag in 293T WT cell line purchased from ATCC (Manassas, VA, USA). Cell culture flasks and 384-well microplates were acquired from VWR (Radnor, PA, USA).
PTPN2 Degradation Analysis
as §1

Structure (SMILES)	DC50 (PTPN2 [1]) [nM]	DC50 (PTPN2 [2]) [nM]
Cn1nc(C2CCC(=O)NC2=O)c2ccc(C3CCN(C4CC(C(=O)Nc5ccc6c(F)c(N7CC(=O)NS7(=O)=O)c(O)cc6c5)C4)CC3)cc21 (stereo not drawn) [Degrader 30]	150 to 500	< 50
Cn1c(=O)n(C2CCC(=O)NC2=O)c2ccc(N3[C@@H]4CC[C@H]3C[C@@H](CC(=O)Nc3ccc5c(F)c(N6CC(=O)NS6(=O)=O)c(O)cc5c3)C4)cc21 (stereo partly drawn) [Degrader 109]	150 to 500	150 to 500
Cn1c(=O)n(C2CCC(=O)NC2=O)c2ccc(C3CCN(CC4CC4C(=O)N4CC[C@@H](c5ccc6cc(O)c(N7CC(=O)NS7(=O)=O)c(F)c6c5)C4)CC3)cc21 (stereo partly drawn) [Degrader 18]	150 to 500	50 to 150
O=C(CCC(=O)Nc1ccc2c(F)c(N3CC(=O)NS3(=O)=O)c(O)cc2c1)NCc1ccc2c3c(cccc13)C(=O)N2C1CCC(=O)NC1=O (stereo not drawn) [Degrader 54]	≥ 500	150 to 500
CCn1c(=O)n(C2CCC(=O)NC2=O)c2ccc(C3CCN([C@@H](CO)C(=O)Nc4ccc5c(F)c(N6CC(=O)NS6(=O)=O)c(O)cc5c4)CC3)cc21 (stereo partly drawn) [Degrader 64]	50 to 150	< 50
Cn1c(=O)n(C2CCC(=O)NC2=O)c2ccc(C3CCN(CC4CC4C(=O)N4CC(Oc5ccc6cc(O)c(N7CC(=O)NS7(=O)=O)c(F)c6c5)C4)CC3)cc21 (stereo not drawn) [Degrader 14]	150 to 500	50 to 150
Cn1c(=O)n(C2CCC(=O)NC2=O)c2ccc(-c3ccc(CC(=O)Nc4ccc5c(F)c(N6CC(=O)NS6(=O)=O)c(O)cc5c4)cc3)c(F)c21 (stereo not drawn) [Degrader 40]	150 to 500	150 to 500
CCn1c(=O)n(C2CCC(=O)NC2=O)c2ccc([C@@H]3CCN(CC(=O)Nc4ccc5c(F)c(N6CC(=O)NS6(=O)=O)c(O)cc5c4)C[C@H]3F)cc21 (stereo partly drawn) [Degrader 131]	≥ 500	150 to 500
C[C@H]1CN(c2ccc3c(c2)n(C)c(=O)n3C2CCC(=O)NC2=O)CCN1CC(=O)Nc1ccc2c(F)c(N3CC(=O)NS3(=O)=O)c(O)cc2c1 (stereo partly drawn) [Degrader 90]	50 to 150	150 to 500
Cn1c(=O)n(C2CCC(=O)NC2=O)c2ccc(Nc3cccc(CC(=O)Nc4ccc5c(F)c(N6CC(=O)NS6(=O)=O)c(O)cc5c4)c3)cc21 (stereo not drawn) [Degrader 72]	50 to 150	< 50
Cn1c(=O)n(C2CCC(=O)NC2=O)c2ccc(C3CCN(CCC(C)(C)CCOc4ccc5cc(O)c(N6CC(=O)NS6(=O)=O)c(F)c5c4)CC3)cc21 (stereo not drawn) [Degrader 7]	150 to 500	< 50
Cn1c(=O)n(C2CCC(=O)NC2=O)c2ccc([C@@H]3CCN(CC(=O)N4CC(Oc5ccc6cc(O)c(N7CC(=O)NS7(=O)=O)c(F)c6c5)C4)C3)cc21 (stereo partly drawn) [Degrader 16]	≥ 500	150 to 500
O=C1CCC(N2C(=O)c3cccc4c(N5CCC(CC(=O)Nc6ccc7c(F)c(N8CC(=O)NS8(=O)=O)c(O)cc7c6)CC5)ccc2c34)C(=O)N1 (stereo not drawn) [Degrader 143]	< 50	50 to 150
Cn1c(=O)n(C2CCC(=O)NC2=O)c2ccc(N3CCC(O)(CC(=O)N4CC[C@@H](c5ccc6cc(O)c(N7CC(=O)NS7(=O)=O)c(F)c6c5)C4)CC3)cc21 (stereo partly drawn) [Degrader 114]	≥ 500	≥ 500
O=C1CCC(n2c3ccc(CCCCNC(=O)Nc4ccc5c(F)c(N6CC(=O)NS6(=O)=O)c(O)cc5c4)cc3c3cccnc32)C(=O)N1 (stereo not drawn) [Degrader 86]	≥ 500	≥ 500
Cn1c(=O)n(C2CCC(=O)NC2=O)c2ccc(N3CCN(CNC(=O)Nc4ccc5c(F)c(N6CC(=O)NS6(=O)=O)c(O)cc5c4)CC3)cc21 (stereo not drawn) [Degrader 93]	50 to 150	50 to 150
Cn1c(=O)n(C2CCC(=O)NC2=O)c2ccc(N3CCC(CC(=O)Nc4ccc5c(F)c(N6CC(=O)NS6(=O)=O)c(O)cc5c4)CC3)cc21 (stereo not drawn) [Degrader 19]	50 to 150	< 50
Cn1c(=O)n(C2CCC(=O)NC2=O)c2ccc(N3CCC(CCNC(=O)Nc4ccc5c(F)c(N6CC(=O)NS6(=O)=O)c(O)cc5c4)CC3)c(F)c21 (stereo not drawn) [Degrader 144]	50 to 150	< 50

Structure (SMILES)	DC50 (PTPN2 [1]) [nM]	DC50 (PTPN2 [2]) [nM]
Cn1nc(C2CCC(=O)NC2=O)c2ccc(Nc3ccc(CC(=O)Nc4ccc5c(F)c(N6CC(=O)NS6(=O)=O)c(O)cc5c4)cc3F)cc21 (stereo not drawn) [Degrader 41]	50 to 150	< 50
Cc1cc(CC(=O)Nc2ccc3c(F)c(N4CC(=O)NS4(=O)=O)c(O)cc3c2)ccc1N(C)c1ccc2c(c1)n(C)c(=O)n2C1CCC(=O)NC1=O (stereo not drawn) [Degrader 87]	50 to 150	50 to 150
Cn1c(=O)n([C@@H]2CCC(=O)NC2=O)c2ccc(N3CCC(CC(=O)Nc4ccc5c(F)c(N6CC(=O)NS6(=O)=O)c(O)cc5c4)CC3)cc21 [Degrader 21]	50 to 150	50 to 150
CCn1c(=O)n(C2CCC(=O)NC2=O)c2ccc(C3CCN([C@H](CO)C(=O)Nc4ccc5c(F)c(N6CC(=O)NS6(=O)=O)c(O)cc5c4)CC3)cc21 (stereo partly drawn) [Degrader 63]	< 50	< 50
Cn1c(=O)n(C2CCC(=O)NC2=O)c2ccc(-n3cc(CC(=O)Nc4ccc5c(F)c(N6CC(=O)NS6(=O)=O)c(O)cc5c4)cn3)cc21 (stereo not drawn) [Degrader 153]	50 to 150	150 to 500
CCn1c(=O)n(C2CCC(=O)NC2=O)c2ccc(-c3ccc(CC(=O)Nc4ccc5c(F)c(N6CC(=O)NS6(=O)=O)c(O)cc5c4)cc3)cc21 (stereo not drawn) [Degrader 49]	50 to 150	50 to 150
C[C@H]1CN(c2ccc3c(c2)n(C)c(=O)n3C2CCC(=O)NC2=O)CC[C@H]1CC(=O)Nc1ccc2c(F)c(N3CC(=O)NS3(=O)=O)c(O)cc2c1 (stereo partly drawn) [Degrader 126]	50 to 150	50 to 150
Cc1nn(CC(=O)Nc2ccc3c(F)c(N4CC(=O)NS4(=O)=O)c(O)cc3c2)c(C)c1-c1ccc2c(C3CCC(=O)NC3=O)nn(C)c2c1 (stereo not drawn) [Degrader 1]	< 50	< 50
C[C@H](C(=O)Nc1ccc2c(F)c(N3CC(=O)NS3(=O)=O)c(O)cc2c1)C1CCN(c2ccc3c(c2)n(C)c(=O)n3C2CCC(=O)NC2=O)CC1 (stereo partly drawn) [Degrader 105]	150 to 500	150 to 500
C[C@@H]1CN(CC(=O)Nc2ccc3c(F)c(N4CC(=O)NS4(=O)=O)c(O)cc3c2)CCN1c1cc2c(cc1F)n(C1CCC(=O)NC1=O)c(=O)n2C (stereo partly drawn) [Degrader 150]	150 to 500	150 to 500
C[C@@H]1CN(c2ccc3c(c2)n(C)c(=O)n3C2CCC(=O)NC2=O)CC[C@@H]1CC(=O)Nc1ccc2c(F)c(N3CC(=O)NS3(=O)=O)c(O)cc2c1 (stereo partly drawn) [Degrader 127]	50 to 150	50 to 150
Cn1c(=O)n(C2CCC(=O)NC2=O)c2cccc(N3CCC(CCNC(=O)Nc4ccc5c(F)c(N6CC(=O)NS6(=O)=O)c(O)cc5c4)CC3)c21 (stereo not drawn) [Degrader 62]	150 to 500	150 to 500
Cn1c(=O)n(C2CCC(=O)NC2=O)c2ccc(C3CCN(CC(=O)Nc4ccc5c(F)c(N6CC(=O)NS6(=O)=O)c(O)cc5c4)CC3=O)cc21 (stereo not drawn) [Degrader 113]	150 to 500	50 to 150
Cn1c(=O)n(C2CCC(=O)NC2=O)c2ccc(-c3ccc(CC(=O)Nc4ccc5c(F)c(N6CC(=O)NS6(=O)=O)c(O)cc5c4)cc3F)c(F)c21 (stereo not drawn) [Degrader 56]	50 to 150	150 to 500
Cc1cc(CC(=O)Nc2ccc3c(F)c(N4CC(=O)NS4(=O)=O)c(O)cc3c2)ccc1-c1ccc2c(c1)n(C)c(=O)n2C1CCC(=O)NC1=O (stereo not drawn) [Degrader 28]	< 50	50 to 150
Cn1c(=O)n(C2CCC(=O)NC2=O)c2ccc(N3CCc4cc(CC(=O)Nc5ccc6c(F)c(N7CC(=O)NS7(=O)=O)c(O)cc6c5)ccc43)cc21 (stereo not drawn) [Degrader 119]	50 to 150	150 to 500
Cn1c(=O)n(C2CCC(=O)NC2=O)c2ccc(C3CCN(CC(=O)N4CC[C@@H](Oc5ccc6cc(O)c(N7CC(=O)NS7(=O)=O)c(F)c6c5)C4)CC3(F)F)cc21 (stereo partly drawn) [Degrader 117]	≥ 500	≥ 500
Cn1c(=O)n(C2CCC(=O)NC2=O)c2ccc(C3CCN(CC(=O)N4CC[C@H](Oc5ccc6cc(O)c(N7CC(=O)NS7(=O)=O)c(F)c6c5)C4)CC3(F)F)cc21 (stereo partly drawn) [Degrader 116]	≥ 500	≥ 500
